Values joined by “and” are separate entries in the source; they are usually repeats but may differ in a detail not shown here. Equal values may be shown once. Read-outs that look alike come from different tables or passages of the source.
How the values were obtained:
[1] = reference 14; cited from earlier work
[2] = tested on: de novo sphingolipid biosynthesis; test: [14C]sphingosine biosynthesis by hepatocytes isolated from rats given fumonisin B1 by gavage; type: in vivo, rat; conditions: 5 mg/200 g body weight by gavage for 2 days
[3] = reference 12; cited from earlier work
[4] = reference 13; cited from earlier work
ceramide synthase = test: in vitro assay of ceramide synthase, rat liver microsomes; type: biochemical; conditions: inhibition may be biphasic (FIG. 5), read-out: apparent IC50 for inhibition of ceramide synthase in vitro
Procedure: In vitro assays of serine palmitoyltransferase and ceramide synthase. A microsomal fraction was isolated from rat liver and assayed for serine palmitoyltransferase, as is known in the art as described in (24,29), and ceramide synthase, as is known in the art as described in (30), in the presence of varying concentrations of fumonisin B1. […] The reaction was initiated by adding palmitoyl-CoA and, after incubation at 37° C. for 15 min, the products were extracted, resolved by TLC, and quantitated as described above. Background counts were subtracted using data from identical assays that omitted palmitoyl-CoA.

rat hepatocytes = test: radiolabelling of phospholipids from [14C]serine in hepatocytes; type: cell-based; conditions: 16 h with [14C]serine
Procedure: Other methods—The incorporation of radiolabel into other lipids was determined by separating the phospholipids by TLC using silica gel H plates developed with CHCl,:methanol:formic acid:water (56:30:2:1, v/v/v/v), visualization of the spots and standards with I2 vapor, and quantitation by scintillation counting. The amount of label in fatty acids was estimated using samples that had been incubated with 0.1 M KOH in methanol for 1 h at 37° C. and separated using the ceramide TLC system because the methyl esters migrate near the solvent front under these conditions.

[5] = tested on: de novo sphingolipid biosynthesis; test: de novo sphingosine biosynthesis from [14C]serine in hepatocytes
Procedure: Hepatocyte culture—Hepatocytes were prepared by a collagenase perfusion method, as known in the art as described in (22), from male Sprague-Dawley rats (125 to 200 g) fed a chow diet (Ralston Purina, St. Louis, Mo.) ad libitum. The hepatocytes were isolated using carefully aseptic procedures and plated in 60 mm tissue culture dishes coated with collagen for short term (<24 h) or with Matrigel for longer term (3 to 4 d) experiments. After plating for 4 h, the medium was changed to 2 ml of DMEM (with 3.7 g/L NaHCO3) containing 10 μg/ml f insulin, 6.1 g/L of penicillin, 10 g/L of streptomycin sulfate, and varying concentrations of fumonisins (added from a 1 mM solution in Delbecco's phosphate buffered saline). The cells were maintained in a tissue culture incubator at 37° C. and an atmosphere of 5% CO2; the medium was changed every 24 h.
Lipid analyses—The de novo biosynthesis of sphingosine was measured, as known in the art as described in (23,24). Briefly, cells that had been exposed to fumonisins for 0 to 4 d were changed to new medium containing 10 μCi of [^14C]serine (25 mCi/mmol) in 2 ml of serine-free DMEM (Gibco) in the presence or absence of fumonisin. After incubation for 2 or 16 h, they were scraped from the dishes, 25 μg of carrier sphingosine and sphinganine were added, and the lipids were extracted and acid hydrolyzed to liberate the free long-chain bases using conditions that give optimal hydrolysis with minimal decomposition of the labile long-chain bases, as known in the art as described in (23-25). The sphinganine and sphingosine were separated by thin-layer chromatography on silica gel H (Brinkman) plates developed with CHCl,:methanol:2 N NH4OH (40:10:1, v/v/v) and the radiolabelling profile (shown in FIG. 2) was determined by radiometric scanning of the plates with a Bioscan System 200 Imaging Scanner. […] The appropriate regions of the chromatoplate were scraped, placed in scintillation vials, and 0.2 ml of water and 4 ml of a detergent based scintillation cocktail were added. After several hours, the samples were counted with the appropriate corrections for quenching.

CCCC[C@@H](C)[C@@H](OC(=O)C[C@@H](CC(=O)O)C(=O)O)[C@H](C[C@@H](C)C[C@H](O)CCCC[C@@H](O)C[C@H](O)[C@H](C)N)OC(=O)C[C@@H](CC(=O)O)C(=O)O [fumonisin B1]
tumor promotion [1]: promotion of liver tumors | ratio of free [14C]sphingosine to [14C]sphinganine [2]: 0.5±0.1 | disease caused [3]: equine leucoencephalomalacia | disease caused [4]: porcine pulmonary edema | IC50 (ceramide synthase): ~100 nM | Radiolabelling Phosphatidylcholine (rat hepatocytes; 1 μM): 2640 ± 264 cm/mg protein × 10^−3 | Radiolabelling Phosphatidylethanolamine (rat hepatocytes; 1 μM): 163 ± 4.4 cm/mg protein × 10^−3 | Radiolabelling Phosphatidylserine (rat hepatocytes; 1 μM): 48.8 ± 2.9 cm/mg protein × 10^−3 | Radiolabelling Phosphatidylcholine (rat hepatocytes; 10 μM): 2740 ± 196 cm/mg protein × 10^−3 | Radiolabelling Phosphatidylethanolamine (rat hepatocytes; 10 μM): 153 ± 10 cm/mg protein × 10^−3 | Radiolabelling Phosphatidylserine (rat hepatocytes; 10 μM): 52.3 ± 3.6 cm/mg protein × 10^−3 | inhibition of [14C]sphingosine formation by hepatocytes ([5]; 1 μM): almost complete inhibition | de novo sphingolipid biosynthesis ([5]; 10 μM): completely blocked | amount of radiolabel in [14C]sphinganine ([5]; hepatocytes treated (FIG. 4A)): increased | IC50 ([5]; read-out: IC50 for inhibition of [14C]serine incorporation into [14C]sphingosine, rat hepatocytes, 2 h incubation (FIG. 3B)): ~100 nM and 100 nM

Source: patent US6720184B1, “Method of altering sphingolipid metabolism and detecting fumonisin ingestion and contamination” (Emory University, priority 1991, dated 2004)
